Results from article PMC2866756 (Antiviral research, 2010).
pEC50: −log10 of the molar value. Like-named read-outs stand apart in the source and are kept apart here. Marks after values point to notes of the source that are not given here.

Legend:
[1] = test system: VZV; test: Antiviral assay, VZV yield by infectious focus; format: cell-based, Varicella-zoster virus; conditions: for Selective Index: cytotoxic dose divided by the EC50 (plaque assay)
[2] = test system: VZV-BAC-Luc; test: Skin organ culture; format: cell-based, Varicella-zoster virus; conditions: for antiviral effects in SOC compared with cultured HFFs: 2 dpi, same concentrations as in HFFs (EC99 doses); for effect on total flux in skin explants: SOC, EC99 doses: 400 μM acyclovir, 1 mM PAA, 1 mM L-mimosine, 50 μM DRB, 20 μM aphidicolin, 20 μM aloisine A, 20 μM purvalanol A, 25 μM roscovitine
[3] = test system: VZV-BAC-Luc; format: in vivo, Varicella-zoster virus; conditions: for effect on VZV growth rate in vivo: SCID-Hu mice, dose groups combined, 3 experiments
[4] = test system: VZV; test: Attempt to isolate roscovitine-resistant VZV by continuous culture; format: cell-based, Varicella-zoster virus; conditions: 10 weeks of continuous culture at doses below the EC50, authors' observations
[5] = test system: VZV; conditions: ref Taylor et al., 2004; cited from earlier work
[6] = test system: skin tissue; conditions: skin organ culture; ref Taylor and Moffat, 2005; cited from earlier work
[7] = Tolerability in SCID-Hu mice
[8] = test system: VZV; test: Antiviral assay, VZV genome copy number by quantitative PCR; format: cell-based, Varicella-zoster virus; conditions: read-out: VZV EC50 (qPCR)
[9] = test system: HFFs; conditions: for Cell Growth Arrest Dose: lowest dose for which absorbance at 48 h was the same as at 0 h
[10] = Human alphaherpesvirus 3, MeWo, 48 h, read-out: VZV EC50 (titer)
[11] = 0.7 mg/kg/day, s.c. osmotic pump, 7 days
[12] = 1.5 mg/kg/day, s.c. osmotic pump, 7 days
[13] = 2.8 mg/kg/day, s.c. osmotic pump, 7 days
[14] = 4.3 mg/kg/day, s.c. osmotic pump, 7 days
[15] = read-out: VZV EC50 (titer), HFFs, 48 h, titered on MeWo cells
[16] = subconfluent HFFs, 48 h, fold change less than 1, * = solubility limit
[17] = HFFs, 48 h, ORF38 copies normalized to β-globin

CC[C@H](CO)Nc1nc(NCc2ccccc2)c2ncn(C(C)C)c2n1 (racemic) [Roscovitine (racemic), Roscovitine]
pEC50 [1, 10]: 5.40 | antiviral effects in SOC compared with cultured HFFs [2]: similar | effect on total flux in skin explants [2]: reduced the total flux | Avg. VZV Growth Rate [3, 11]: 0.13 Log10 photons/sec/day | Avg. VZV Growth Rate [3, 12]: 0.12 Log10 photons/sec/day | Avg. VZV Growth Rate [3, 13]: 0.24 Log10 photons/sec/day | Avg. VZV Growth Rate [3, 14]: 0.26 Log10 photons/sec/day | effect on VZV growth rate in vivo [3]: significantly reduced VZV growth rates | isolation of a resistant strain of VZV [4]: failed | reversibility of antiviral effect [5]: reversible | cytotoxicity by histopathological analysis of skin tissue [6]: neither DMSO nor roscovitine was cytotoxic | Mortality [7, 11]: 0/5 | ABWD [7, 12]: −0.10 grams | Mortality [7, 12]: 0/4 | ABWD [7, 13]: −1.60 grams | Mortality [7, 13]: 0/7 | ABWD [7, 14]: 0.36 grams | Mortality [7, 14]: 0/5

Nc1nc2c(ncn2COCCO)c(=O)[nH]1 [Acyclovir]
pEC50 ([8]; Human alphaherpesvirus 3, 48 h): 5.30 | pEC50 [1, 10]: 5.40 | tolerance in Neutral Red assay [9]: tolerated up through the limit of their solubility | Cytotoxic Dose ([9]; human, 48 h): 1.0 × 10^3* μM

CCCCc1c(-c2ccc(O)cc2)[nH]c2nccnc12 [Aloisine A]
pEC50 ([8]; Human alphaherpesvirus 3, 48 h): 5.70 | pEC50 [1, 10]: 5.60 | pEC50 ([1]; Human alphaherpesvirus 3, read-out: EC50 values): 5.40 to 5.70 | antiviral effects in SOC compared with cultured HFFs [2]: much lower | effect on total flux in skin explants [2]: increased | tolerance in Neutral Red assay ([9]; HFFs, culture medium at 37°C): tolerated up through the limit of their solubility | Cell Growth Arrest Dose ([9]; HFFs): 20 µM

C[C@@]1(CO)[C@H](O)CC[C@@]2(C)[C@H]1CC[C@H]1C[C@@H]3C[C@@]12CC[C@]3(O)CO [Aphidicolin]
Selective Index [1]: 833 | antiviral effects in SOC compared with cultured HFFs [2]: similar | effect on total flux in skin explants [2]: reduced the total flux | tolerance in Neutral Red assay ([9]; HFFs, culture medium at 37°C): tolerated up through the limit of their solubility

C[S+](C)[O-] [DMSO, Dimethylsulfoxide]
pEC50 [1, 15]: 1.12 | effect on cell growth ([9]; HFFs, 400 mM): inhibited cell growth slightly | concentration with no effect in Neutral Red assay ([9]; HFFs, 48 h): up to 150 mM | Cytotoxic Dose [9, 16]: >400000 µM

OC[C@H]1O[C@@H](n2cnc3cc(Cl)c(Cl)cc32)[C@H](O)[C@@H]1O [DRB, Dichloro-β-D-ribofurano-sylbenzimidazole]
pEC50 [8, 17]: 5.70 | pEC50 [1, 15]: 5.30 | antiviral effects in SOC compared with cultured HFFs [2]: similar | effect on total flux in skin explants [2]: reduced the total flux | Cell Growth Arrest Dose ([9]; HFFs): 50 µM

N[C@@H](Cn1ccc(=O)c(O)c1)C(=O)O [L-mimosine]
pEC50 ([8]; Human alphaherpesvirus 3, 48 h): 4.30 | pEC50 [1, 10]: 4.15 | Selective Index [1]: 43 | antiviral effects in SOC compared with cultured HFFs [2]: similar | effect on total flux in skin explants [2]: reduced the total flux | Cell Growth Arrest Dose ([9]; HFFs): 300 µM | Cytotoxic Dose ([9]; human, 48 h): 3000 µM

O=C(O)CP(=O)(O)O [Phosphonoacetic acid (PAA), Phosphonoacetic acid]
pEC50 ([8]; Human alphaherpesvirus 3, 48 h): 3.30 | pEC50 [1, 10]: 3.52 | Cytotoxic Dose ([9]; human, 48 h): 15000 µM

CC(C)[C@H](CO)Nc1nc(Nc2cccc(Cl)c2)c2ncn(C(C)C)c2n1 [Purvalanol A]
Selective Index [1]: 570 | antiviral effects in SOC compared with cultured HFFs [2]: much lower | effect on total flux in skin explants [2]: increased | Avg. VZV Growth Rate ([3]; 10 mg/kg/day, daily i.p. injection): 0.37 Log10 photons/sec/day | effect on VZV growth rate in vivo [3]: not effective at reducing the rate of VZV growth | effect on VZV growth rate in vivo ([3]; listed as purvalanol A): No difference | Cell Growth Arrest Dose ([9]; HFFs): 10 µM | Cytotoxic Dose [9, 16]: 20 µM | ABWD ([7]; 20 mg/kg/day, daily i.p. injection): −2.96 grams | tolerability in mice ([7]; i.p. injection, 20 or 10 mg/kg/day): not as well tolerated as roscovitine

CC[C@H](CO)Nc1nc(NCc2ccccc2)c2ncn(C(C)C)c2n1 [R-Roscovitine]
pEC50 ([8]; Human alphaherpesvirus 3, 48 h): 5.52 | pEC50 [1, 10]: 5.46

CC[C@@H](CO)Nc1nc(NCc2ccccc2)c2ncn(C(C)C)c2n1 [S-Roscovitine]
pEC50 [8, 17]: 6.00 | pEC50 [1, 15]: 5.60

CN[C@@H]1C[C@H]2O[C@@](C)([C@@H]1OC)n1c3ccccc3c3c4c(c5c6ccccc6n2c5c31)C(=O)NC4 [staurosporine]
live cells after treatment ([9]; HFFs, 35 nM, positive control for cell death): No live cells were detected
